The subject of this test is L1210 leukemia ip in BDF1 mice, survival T/C. The experiment in a line: NCI In Vivo Anticancer Drug Screen. Data for tumor model L1210 Leukemia (intraperitoneal) in B6D2F1 (BDF1) mice. Particulars: endpoint: mean survival time, higher = longer survival. An outline of the steps: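 In this screen, tumor-bearing mice given compound are compared to those given vehicle, and their survival values are reported as a treated-to-control quotient.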

[1] abbreviates: dose: 100.0 mg/kg/injection, schedule: Q04DX003 (ip), vehicle: Klucel (hydroxypropylcellulose) (HPC).
[2] abbreviates: dose: 100.0 mg/kg/injection, schedule: Q01DX009 (ip), vehicle: saline with Tween-80.
The mark [3] stands for this setting: dose: 200.0 mg/kg/injection, schedule: Q01DX009 (ip), vehicle: saline with Tween-80.
[4] abbreviates: dose: 100.0 mg/kg/injection, schedule: Q01DX009 (ip), vehicle: Klucel (hydroxypropylcellulose) (HPC).
Setting [5] is: dose: 200.0 mg/kg/injection, schedule: Q01DX009 (ip), vehicle: Klucel (hydroxypropylcellulose) (HPC).
Where [6] appears, read: dose: 200.0 mg/kg/injection, schedule: Q04DX003 (ip), vehicle: Klucel (hydroxypropylcellulose) (HPC).
Setting [7] is: dose: 400.0 mg/kg/injection, schedule: Q01DX009 (ip), vehicle: Klucel (hydroxypropylcellulose) (HPC).
[8] abbreviates: dose: 400.0 mg/kg/injection, schedule: Q04DX003 (ip), vehicle: Klucel (hydroxypropylcellulose) (HPC).
Setting [9] is: dose: 6.25 mg/kg/injection, schedule: Q01DX009 (ip), vehicle: saline.
Where [10] appears, read: dose: 100.0 mg/kg/injection, schedule: Q01DX001 (ip), vehicle: saline.
[11] abbreviates: dose: 100.0 mg/kg/injection, schedule: Q04DX002 (ip), vehicle: saline with Tween-80.
The mark [12] stands for this setting: dose: 200.0 mg/kg/injection, schedule: Q04DX002 (ip), vehicle: saline with Tween-80.
The mark [13] stands for this setting: dose: 400.0 mg/kg/injection, schedule: Q04DX002 (ip), vehicle: saline with Tween-80.
The mark [14] stands for this setting: dose: 100.0 mg/kg/injection, schedule: Q04DX003 (ip), vehicle: saline with Tween-80.
Where [15] appears, read: dose: 200.0 mg/kg/injection, schedule: Q04DX003 (ip), vehicle: saline with Tween-80.
Where [16] appears, read: dose: 400.0 mg/kg/injection, schedule: Q01DX009 (ip), vehicle: saline with Tween-80.
The mark [17] stands for this setting: dose: 400.0 mg/kg/injection, schedule: Q04DX003 (ip), vehicle: saline with Tween-80.
Setting [18] is: dose: 200.0 mg/kg/injection, schedule: Q01DX001 (ip), vehicle: saline.
Where [19] appears, read: dose: 400.0 mg/kg/injection, schedule: Q01DX001 (ip), vehicle: saline.

SMILES strings stand for the structures. Values joined by “and” are separate entries in the source; they are usually repeats but may differ in a detail not shown here. Equal entries are not always repeated. Inconclusive results and toxic doses are left out.

On to `O=C(O)/C=C/c1cc(O)c(O)c(O)c1`, for which the T/C is 100 % of control (dose: 25.0 mg/kg/injection, schedule: Q01DX001 (ip), vehicle: other); 99 % of control (dose: 50.0 mg/kg/injection, schedule: Q01DX001 (ip), vehicle: other); 94 % of control (dose: 100.0 mg/kg/injection, schedule: Q01DX001 (ip), vehicle: other).

With `C=CCc1cc(CNCC(C)O)c(O)c(OC)c1` (stereo not drawn), the T/C by setting is: (dose: 50.0 mg/kg/injection, schedule: Q04DX003 (ip), vehicle: Klucel (hydroxypropylcellulose) (HPC)) 95 % of control; under setting [1], 93 % of control.

Turning to `ClCC(Br)CBr` (stereo not drawn), the T/C runs as follows: (dose: 75.0 mg/kg/injection, schedule: Q01DX001 (ip), vehicle: saline) 106 % of control; (dose: 150.0 mg/kg/injection, schedule: Q01DX001 (ip), vehicle: saline) 104 % of control.

As to `Oc1cc(O)c2c(c1)OC(O)(c1ccc(O)c(O)c1)C(O)O2` (stereo not drawn) (tested in a mixture with another compound), the T/C is, setting by setting: (dose: 50.0 mg/kg/injection, schedule: Q01DX009 (ip), vehicle: saline with Tween-80) 104 % of control; under setting [2], 95 % of control; under setting [3], 102 % of control.

Regarding `O=c1c2ccccc2sc2c(CO)ccc(NCCN3CCCCC3)c12`, the T/C runs as follows: (dose: 50.0 mg/kg/injection, schedule: Q01DX009 (ip), vehicle: Klucel (hydroxypropylcellulose) (HPC)) 99 % of control; under setting [4], 96 % of control; under setting [5], 120 % of control.

As for `Cc1cnc2c(N)[nH]nc2n1`, the T/C under setting [1] is 106 % of control; the T/C under setting [5] was 104 % of control; the T/C under setting [6] was 96 % of control; the T/C under setting [7] is 100 % of control; the T/C under setting [8] is 102 % of control.

`CN(C)c1ccc(C2SCSCS2)cc1`: the T/C is 97 % of control under setting [1], 101 % of control under setting [6] and 95 % of control under setting [8].

Take `CCCCC(=O)C1CN(C(C)(C)C)C1`: the T/C was 102 % of control (dose: 5.0 mg/kg/injection, schedule: Q01DX001 (ip), vehicle: saline); 104 % of control (dose: 5.0 mg/kg/injection, schedule: Q01DX009 (ip), vehicle: saline); 97 % of control (dose: 10.0 mg/kg/injection, schedule: Q01DX001 (ip), vehicle: saline); 111 % of control (dose: 10.0 mg/kg/injection, schedule: Q01DX009 (ip), vehicle: saline); 102 % of control (dose: 20.0 mg/kg/injection, schedule: Q01DX001 (ip), vehicle: saline); 97 % of control (dose: 20.0 mg/kg/injection, schedule: Q01DX009 (ip), vehicle: saline).

For the compound `Nc1ncn(C2CC(O)C(CO)O2)c(=O)n1` (stereo not drawn), the T/C reads like this: (dose: 0.05 mg/kg/injection, schedule: Q01DX005 (ip), vehicle: saline) 155 % of control; (dose: 0.12 mg/kg/injection, schedule: Q01DX005 (ip), vehicle: saline) 154 % of control; (dose: 0.78 mg/kg/injection, schedule: Q01DX005 (ip), vehicle: saline) 94 % of control; (dose: 1.56 mg/kg/injection, schedule: Q01DX005 (ip), vehicle: saline) 98 % of control; (dose: 1.56 mg/kg/injection, schedule: Q01DX009 (ip), vehicle: saline) 114 % of control; (dose: 3.12 mg/kg/injection, schedule: Q01DX005 (ip), vehicle: saline) 100 % of control. Also, the T/C (dose: 3.12 mg/kg/injection, schedule: Q01DX009 (ip), vehicle: saline) was 100 % of control; the T/C under setting [9] is 86 % of control; the T/C under setting [10] is 171 % of control; the T/C (dose: 100.0 mg/kg/injection, schedule: Q01DX005 (ip), vehicle: saline) is 167 % of control and 174 % of control; the T/C (dose: 200.0 mg/kg/injection, schedule: Q01DX005 (ip), vehicle: saline) is 174 % of control and 198 % of control; the T/C (dose: 300.0 mg/kg/injection, schedule: Q04DX003 (ip), vehicle: saline) is 167 % of control.

Turning to `O=Cc1ccsc1`, the T/C is 90 % of control under setting [11], 97 % of control under setting [12] and 101 % of control under setting [13].

For the compound `O=[N+]([O-])c1ccc2[nH]c3c(c2c1)CSCC3`, the T/C is 91 % of control under setting [2]; 100 % of control under setting [14]; 88 % of control under setting [3]; 100 % of control under setting [15]; 94 % of control under setting [16]; 95 % of control under setting [17].

Consider `CN(C/C=C/CN(C)P(=S)(N1CC1)N1CC1)P(=S)(N1CC1)N1CC1`, for which the T/C is 96 % of control (dose: 100.0 mg/kg/injection, schedule: Q01DX001 (ip), vehicle: carboxymethylcellulose (CMC)); 93 % of control (dose: 200.0 mg/kg/injection, schedule: Q01DX001 (ip), vehicle: carboxymethylcellulose (CMC)); 109 % of control (dose: 400.0 mg/kg/injection, schedule: Q01DX001 (ip), vehicle: carboxymethylcellulose (CMC)).

For `CC(O)(c1ccccc1)c1ccccc1`, the T/C (dose: 50.0 mg/kg/injection, schedule: Q01DX001 (ip), vehicle: saline) was 95 % of control; the T/C under setting [10] was 101 % of control; the T/C under setting [14] is 100 % of control; the T/C under setting [18] is 97 % of control; the T/C under setting [15] was 100 % of control; the T/C under setting [19] is 97 % of control. The T/C under setting [17] was 110 % of control.

Consider `CC(c1ccccc1)n1cnc2c(=S)nc[nH]c21` (stereo not drawn), for which the T/C was 92 % of control under setting [10], 95 % of control under setting [18] and 103 % of control under setting [19].

In the case of `CCOC(=O)c1ccc(NCc2cnc(N)c(C#N)n2)cc1`, the T/C under setting [14] is 91 % of control, the T/C under setting [15] was 95 % of control and the T/C under setting [17] was 95 % of control.

Turning to `CC(CN=Cc1ccccc1[O-])N=Cc1ccccc1[O-].[O]=[V]` (stereo not drawn), the T/C was 94 % of control (dose: 5.0 mg/kg/injection, schedule: Q01DX009 (ip), vehicle: saline with Tween-80); 91 % of control (dose: 10.0 mg/kg/injection, schedule: Q01DX009 (ip), vehicle: saline with Tween-80); 97 % of control (dose: 20.0 mg/kg/injection, schedule: Q01DX009 (ip), vehicle: saline with Tween-80).

Take `S=P(c1ccccc1)(c1ccccc1)P(=S)(c1ccccc1)c1ccccc1`: the T/C (dose: 100.0 mg/kg/injection, schedule: Q04DX002 (ip), vehicle: Klucel (hydroxypropylcellulose) (HPC)) was 100 % of control; the T/C (dose: 200.0 mg/kg/injection, schedule: Q04DX002 (ip), vehicle: Klucel (hydroxypropylcellulose) (HPC)) was 92 % of control; the T/C (dose: 400.0 mg/kg/injection, schedule: Q04DX002 (ip), vehicle: Klucel (hydroxypropylcellulose) (HPC)) is 92 % of control.

On to `O=C1CC(c2ccccc2)C1(c1ccccc1)c1ccccc1` (stereo not drawn), for which the T/C by setting is: under setting [1], 98 % of control; under setting [6], 101 % of control; under setting [8], 96 % of control.

As to `CCCC(C1=CC(C)(C)c2ccccc2C1=O)c1ccc(Br)cc1` (stereo not drawn), the T/C is, setting by setting: under setting [4], 108 % of control; under setting [1], 110 % of control; under setting [5], 106 % of control; under setting [6], 113 % of control; under setting [7], 103 % of control; under setting [8], 106 % of control.

Consider `CCc1ccccc1N/N=C(\Cl)C(C)=O`, for which the T/C under setting [9] is 106 % of control; the T/C (dose: 12.5 mg/kg/injection, schedule: Q01DX009 (ip), vehicle: saline) was 106 % of control; the T/C (dose: 25.0 mg/kg/injection, schedule: Q01DX009 (ip), vehicle: saline) is 95 % of control.

`O=C(O)c1cscn1`: the T/C runs as follows: under setting [10], 93 % of control; under setting [2], 101 % of control and 90 % of control; under setting [11], 97 % of control and 107 % of control; under setting [14], 108 % of control; under setting [18], 103 % of control; under setting [3], 95 % of control and 97 % of control. The T/C is, setting by setting: under setting [12], 97 % of control and 106 % of control; under setting [15], 98 % of control; under setting [19], 93 % of control; under setting [16], 92 % of control; under setting [13], 102 % of control and 92 % of control.

The values above are taken from PubChem BioAssay AID248 (DTP/NCI, 2004).
